Data taken from patent US9624167B2, “N-(4-hydroxy-4-methyl-cyclohexyl)-4-phenyl-benzenesulfonamides and N-(4-hydroxy-4-methyl-cyclohexyl)-4-(2-pyridyl)benzenesulfonamides and their therapeutic use” (PIMCO 2664 LIMITED, priority 2013, dated 2017).
Read-outs that look alike come from different tables or passages of the source.

Legend:
J774 macrophages [1] = assay: Resazurin Macrophage J774 Viability Assay; assay type: cell-based; settings: Mus musculus, 6 point concentration range 10 μM to 10 nM, n = 3 replicates, mean of 2 independent experiments, 72 hour incubation, read-out: IC50 (1)
Experimental: Potency was assessed using a viability assay based on the survival of the J774 macrophage cell line. Macrophages are closely related to osteoclasts and have been used previously as a model system for osteoclast survival (see, e.g., Luckman et al., 1998, “Heterocycle-containing bisphosphonates cause apoptosis and inhibit bone resorption by preventing protein prenylation: evidence from structure-activity relationships in J774 macrophages,” J. Bone Miner. Res., Vol. 13, pp. 1668-1678). The model is indicative both of effects on bone protection in diseases such as osteoporosis, osteoarthritis and rheumatoid arthritis, and of effects on inflammation since, like osteoclasts, J774 macrophages are dependent for survival on continued NFκB activation.
In vitro potency of test compounds was determined by incubation with J774 macrophages and subsequent determination of cell viability using resazurin.
Resazurin is a redox dye commonly used as an indicator of viability in cultured cells (see, e.g., Anoopkumar-Dukie, 2005, British Journal of Radiology, Vol. 78, pp. 945-947). It is non-toxic to cells and stable in culture medium, allowing continuous measurement of cell proliferation in vitro as either a kinetic or endpoint assay. The assay is based on the ability of viable, metabolically-active cells to reduce resazurin (which is blue and non-fluorescent) to resorufin and dihydroresorufin (which are red and fluorescent) using electrons from reducing species, such as nicotinamide adenine dinucleotide (NADPH) and flavin adenine dinucleotide (FADH). This transformation, from oxidised form to reduced form, can be measured either colorimetrically or fluorometrically. Insults that impair cell viability and proliferation also affects the capacity of cells to reduce resazurin, and the rate of dye reduction is directly proportional to the number of viable cells present.
For fluorescence measurements, 530-560 nm excitation and 590 nm emission wavelengths are typically used. For colorimetric measurements, absorbance at 570 nm (reduced form) and 600 nm (oxidised form) is typically measured. A simple calculation is performed to determine the relative quantities of the two species: a high ratio of resorufin (the reduced form) to resazurin (the oxidised form) is an indicator that cells are proliferating and viable. A low ratio indicates cells that are quiescent or non-viable.
J774 cells were plated at 10^4 cells per well in 100 μL αMEM (α Modified Eagle Medium) in 96-well plates and allowed to adhere overnight. The following day, test compounds were prepared as 100 mM solutions in DMSO. These stock solutions were diluted in DMSO and then diluted 1000× in culture medium (αMEM) before being added directly to the wells so as to give the desired final compound concentration. After a 72 hour incubation at 37° C./5% CO2, resazurin (Alamar Blue, Biosource International) was added to each well (1:10 v/v, 10 μL). The plate was then incubated at 37° C. for 3 hours and fluorescence was measured at 590 nm, with a 25 nm bandwidth.
The average results for each test compound were expressed as a percent (%) of the average control value reflecting cell viability. The average values across the concentrations tested were then plotted and the IC50 for was calculated by fitting the data to a 4-parameter IC50 equation using software from Grafit (Erithacus Software). Each experiment was repeated twice and the data are presented as the mean IC50 from both experiments.

[2] = Rodent pharmacokinetics study; assay type: in vivo, Sprague-Dawley rats; settings: rat; for half-life: male, Sprague-Dawley, plasma, elimination phase half-life; for p.o. AUC: oral 5 mg/kg in 0.5% CMC/0.1% Tween-80 (HMC-C-01-A in 2% dimethylacetamide/20% hydroxypropyl-β-cyclodextrin); for Bioavail, F: tentative oral bioavailability, F=AUC(p.o.)×Dose(i.v.)/AUC(i.v.)×Dose(p.o.)
Experimental: Absorption and metabolic stability were studied using an in vivo pharmacokinetics assay.
Three male Sprague-Dawley rats, aged 8-12 weeks, were dosed with test compounds administered either orally or intravenously (dose level of 1 mg/kg body weight intravenous or 5 mg/kg body weight orally). Test compounds were formulated in 0.5% carboxymethylcellulose (CMC)/0.1% Tween-80 for administration via the oral route, or in 5% DMSO/10% solutol in saline for administration via the intravenous route. For compound HMC-C-01-A the oral administration was formulated in 2% dimethylacetamide/20% hydroxypropyl-β-cyclodextrin in water. Animals were given free access to food throughout the study except for fasting overnight and until 2 hours post dose on the day of dosing.
Blood samples were taken from the retro-orbital plexus at the following time points and placed in microtubes containing 20% K2EDTA solution:
Oral Dosing: predose; 0.25, 0.5, 1, 2, 4, 6, 8, and 24 hours post dose.
Intravenous Dosing: predose; 0.08, 0.25, 0.5, 1, 2, 4, 8, and 24 hours post dose.
Blood samples were centrifuged to obtain plasma, which was transferred to a separate container and frozen at −20° C.
For analysis, samples were thawed at room temperature and prepared by protein precipitation with acetonitrile spiked with internal standard (500 ng/mL glipizide) in the ratio 1:4 with plasma. The samples were then vortexed for 5 minutes and centrifuged for 10 minutes at 20,600×g at 4° C. 100 μL of the supernatant was collected for analysis. The standard samples were prepared similarly, after spiking blank rat plasma samples with 10 μL of analyte.
The pharmacokinetic parameters for the test compounds were calculated by Phoenix WinNonlin version 6.3 (Pharsight Corp, CA) using standard non-compartmental methods. Peak plasma concentrations (Cmax) and time of the peak plasma concentration (Tmax) were the observed values. The area under the plasma concentration-time curve (AUC) was determined by use of the linear trapezoidal rule up to the last measurable concentration (AUClast) and thereafter by extrapolation of the terminal elimination phase to infinity (AUCinf). The terminal elimination rate constant (kel) was determined by regression analysis of the linear terminal portion of the log plasma concentration-time curve. The elimination phase half-life (t1/2) was calculated as 0.693/kel.

J774 macrophages [3] = assay: Resazurin Macrophage J774 Viability Assay; assay type: cell-based; settings: Mus musculus, 12 point concentration range 10 μM to 0.5 nM, n = 4 replicates, mean of 3 independent experiments, 72 hour incubation, read-out: IC50 (2)

SMILES | IC50 (J774 macrophages [1]) | half-life [2] | i.v. AUC ([2]; intravenous 1 mg/kg) | p.o. AUC [2] | Bioavail, F [2] | IC50 (J774 macrophages [3])
C[C@]1(O)CC[C@H](NS(=O)(=O)c2ccc(-c3ncc(F)cc3F)c(F)c2)CC1 [HMC-N-01-A, 4-(3,5-Difluoropyridin-2-yl)-3-fluoro-N-((1r,4r)-4-hydroxy-4-methylcyclohexyl)benzenesulfonamide] | 130 nM | 13.4 h | 740 ng·min/mL | 23.5 ng·h/mL | 64% | 2660 nM
C[C@]1(O)CC[C@H](NS(=O)(=O)c2ccc(-c3ncc(Cl)cc3Cl)cc2)CC1 [HMC-N-03-A, 4-(3,5-Dichloropyridin-2-yl)-N-((1r,4r)-4-hydroxy-4-methylcyclohexyl)benzenesulfonamide] | 170 nM | 3.1 h |  | 16 ng·h/mL | 8% | 620 nM
